Reference: ChEMBL document CHEMBL1201862, “PubChem BioAssay data set” (2004)
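Method: 48-hour compound exposure of cells in 96-well plates, five concentrations, linear interpolation of endpoints. Abbreviation: GI50, concentration required for 50% inhibition of growth.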 Activity calls are given as the source filed them. No stated cut-off is given here; in the data, active = GI50 up to about 1.1 µM and inactive = higher.

Experiments:
Experiment in all cases: NCI-60 cell line screen, 48 h
[1] = tested on: UO-31
[2] = tested on: MDA-MB-435
[3] = tested on: BT-549
[4] = tested on: HCC 2998
[5] = tested on: SN12C
[6] = tested on: A498
[7] = tested on: A549
[8] = tested on: CAKI-1
[9] = tested on: K562
[10] = tested on: DU-145
[11] = tested on: RPMI-8226
[12] = tested on: HT-29
[13] = tested on: OVCAR-8
[14] = tested on: ACHN
[15] = tested on: SF-268
[16] = tested on: SNB-75
[17] = tested on: SF-539
[18] = tested on: Hs-578T
[19] = tested on: MCF7

Measured: GI50

Cc1cccc(/N=N/C(=O)NNc2cccc(C)c2C)c1C
inactive: [1] 30.8 µM | [2] 26.1 µM | [3] 23.3 µM | [4] 15 µM | [5] 53.1 µM | [6] 34 µM | [7] 31.2 µM | [8] 39 µM | [9] 33.7 µM | [10] 37 µM | [11] 29.4 µM | [12] 56.9 µM | [13] 33.3 µM | [14] 41.7 µM | [15] 34 µM | [16] 54.3 µM

CCOC(=O)c1c(SC(=O)c2ccc(C(C)(C)C)cc2)n(-c2ccccc2)c(=S)n(-c2ccccc2)c1=O
inactive: [17] > 100 µM | [18] > 100 µM | [2] > 100 µM | [4] > 100 µM | [5] > 100 µM | [6] > 100 µM | [19] > 100 µM | [7] > 100 µM | [8] > 100 µM | [9] > 100 µM | [10] > 100 µM | [12] > 100 µM | [13] > 100 µM | [14] > 100 µM | [15] > 100 µM | [16] > 100 µM

COc1ccc(C2C(=O)c3c(OC)cc(OC)cc3OC2c2cccnc2)cc1 (stereo not given)
inactive: [17] > 100 µM | [18] > 100 µM | [1] 32.2 µM | [2] 44.5 µM | [4] > 100 µM | [5] > 100 µM | [6] > 100 µM | [19] > 100 µM | [7] > 100 µM | [8] > 100 µM | [9] 59.6 µM | [10] > 100 µM | [12] 71.3 µM | [13] > 100 µM | [14] > 100 µM | [15] > 100 µM | [16] 27.4 µM

CN(C(=S)Cc1ccc(Cl)c(Cl)c1)C1CCCC[C@@H]1N1CCCC1 (stereo not given in full)
inactive: [17] 55.7 µM | [1] 19.6 µM | [2] 26.6 µM | [3] 72.1 µM | [5] 63.7 µM | [6] 13 µM | [7] 63.4 µM | [8] 44.6 µM | [9] 61 µM | [10] > 100 µM | [11] 31.8 µM | [12] 16.7 µM | [14] 62.1 µM

O=[N+]([O-])/C(C(Cl)=C(Cl)Cl)=C(\SCc1ccccc1)N1CCCCC1
inactive: [17] 21.5 µM | [18] 27.5 µM | [1] 24.2 µM | [2] 16.3 µM | [4] 23.4 µM | [5] 20.2 µM | [6] 31.9 µM | [19] 12.6 µM | [7] 30.9 µM | [8] > 100 µM | [9] 27.8 µM | [10] 41.3 µM | [11] 11.5 µM | [12] 36.6 µM | [13] 20.6 µM | [14] 17.4 µM | [15] 23.7 µM

C[C@H]1C[C@@H]2[C@H]([C@@H](O)C[C@@]3(C)[C@H]2CC[C@]3(O)C(=O)CO)[C@@]2(C)C=CC(=O)C=C12 [METHYLPREDNISOLONE]
inactive: [1] > 100 µM | [4] > 100 µM | [5] 46.6 µM | [6] > 100 µM | [7] > 100 µM | [8] > 100 µM | [9] > 100 µM | [11] > 100 µM | [12] > 100 µM | [13] > 100 µM | [14] > 100 µM

Brc1ccc(C2=NCSC(c3ccc(Br)cc3)=N2)cc1
inactive: [17] 31.5 µM | [18] 44.1 µM | [1] 15.4 µM | [2] 28.8 µM | [3] 52.8 µM | [4] 23 µM | [5] 29.6 µM | [19] 32.2 µM | [7] 32.3 µM | [8] 7.98 µM | [9] 31 µM | [11] 16.1 µM | [12] 27.4 µM | [13] 37.8 µM | [14] 21.7 µM | [15] 53.3 µM | [16] 24.3 µM

CSC1=C(C#N)C(=O)N(c2ccc(C)cc2)C(=S)C1C#N (stereo not given)
inactive: [17] > 100 µM | [18] > 100 µM | [2] > 100 µM | [3] > 100 µM | [4] > 100 µM | [5] > 100 µM | [6] > 100 µM | [19] > 100 µM | [7] > 100 µM | [8] > 100 µM | [9] > 100 µM | [12] > 100 µM | [13] > 100 µM | [14] > 100 µM | [15] > 100 µM | [16] 77.1 µM

Cc1c(NC(=O)CCCl)c(=O)oc2c(C)c3occc(=O)c3cc12
inactive: [18] 35.5 µM | [1] 36.1 µM | [4] > 100 µM | [6] 19.7 µM | [19] 67.5 µM | [7] > 100 µM | [8] 42.1 µM | [9] 66.4 µM | [10] > 100 µM | [11] 81.7 µM | [12] > 100 µM | [13] > 100 µM | [14] 45.5 µM | [15] > 100 µM | [16] 42.2 µM

NCCCNOCCCN
inactive: [17] > 100 µM | [1] > 100 µM | [2] > 100 µM | [4] > 100 µM | [5] > 100 µM | [6] > 100 µM | [19] > 100 µM | [7] > 100 µM | [8] > 100 µM | [9] > 100 µM | [10] > 100 µM | [11] > 100 µM | [12] > 100 µM | [13] > 100 µM | [14] > 100 µM | [15] > 100 µM

O=C(CC(C(=O)c1cccs1)c1ccsc1)c1ccccc1 (stereo not given)
inactive: [17] > 100 µM | [18] > 100 µM | [1] 37.8 µM | [2] 31.4 µM | [4] > 100 µM | [5] > 100 µM | [6] 51.8 µM | [19] 30.7 µM | [7] 21.5 µM | [8] > 100 µM | [10] > 100 µM | [11] 48.8 µM | [12] > 100 µM | [13] > 100 µM | [14] 69.5 µM | [15] > 100 µM | [16] > 100 µM

O=C(O)C1(C(=O)O)CC1(C(=O)O)C(=O)O
inactive: [17] > 100 µM | [18] > 100 µM | [1] > 100 µM | [3] > 100 µM | [4] > 100 µM | [5] > 100 µM | [19] > 100 µM | [7] > 100 µM | [8] > 100 µM | [9] > 100 µM | [10] > 100 µM | [12] > 100 µM | [13] > 100 µM | [14] > 100 µM | [15] > 100 µM | [16] > 100 µM

Cc1ccc(/N=c2/oc3c(ccc4ccccc43)nc2Nc2ccc(C)cc2)cc1
inactive: [17] > 100 µM | [18] > 100 µM | [1] > 100 µM | [2] > 100 µM | [4] > 100 µM | [5] > 100 µM | [6] > 100 µM | [7] > 100 µM | [8] > 100 µM | [9] > 100 µM | [10] > 100 µM | [11] > 100 µM | [12] > 100 µM | [13] > 100 µM | [14] 80.4 µM | [15] > 100 µM | [16] > 100 µM

CC(=O)Oc1ccc(OC(Oc2ccccc2)c2ccccc2)cc1 (stereo not given)
inactive: [17] 23.1 µM | [1] 26.8 µM | [2] 32.4 µM | [3] 27 µM | [4] 14.7 µM | [5] 15 µM | [6] 23.7 µM | [19] 35.4 µM | [7] 37.5 µM | [8] 20 µM | [9] 51.4 µM | [10] 36.9 µM | [12] 28.1 µM | [13] 37.9 µM | [14] 25.2 µM | [15] 33 µM | [16] 10.4 µM

CN/C(=N\CCSCc1nc[nH]c1C)NC#N [CIMETIDINE]
inactive: [17] > 100 µM | [18] > 100 µM | [1] > 100 µM | [2] > 100 µM | [4] > 100 µM | [5] > 100 µM | [6] 91.6 µM | [19] > 100 µM | [7] > 100 µM | [8] > 100 µM | [9] > 100 µM | [10] > 100 µM | [12] > 100 µM | [13] > 100 µM | [14] > 100 µM | [15] > 100 µM | [16] 33.3 µM

[O-][N+]1=NC(c2ccccc2)=C1c1ccccc1
inactive: [17] > 50 µM | [18] > 50 µM | [1] > 50 µM | [2] > 50 µM | [5] > 50 µM | [6] > 50 µM | [19] > 50 µM | [7] > 50 µM | [8] > 50 µM | [9] > 50 µM | [10] > 50 µM | [11] > 50 µM | [12] > 50 µM | [13] > 50 µM | [14] > 50 µM | [15] > 50 µM | [16] 10.8 µM

CCn1c2nc(=O)n(CCCCCCCCSC(c3ccccc3)(c3ccccc3)c3ccccc3)c(=O)c-2nc2ccccc21
inactive: [17] 64.3 µM | [18] 3.33 µM | [1] 6.65 µM | [2] 6.12 µM | [4] 2.67 µM | [6] 37.8 µM | [19] 6.19 µM | [8] 5.22 µM | [9] 5.55 µM | [10] 90.6 µM | [11] 4.22 µM | [12] 2.74 µM | [13] 43.6 µM | [14] 3.21 µM | [15] 4.08 µM
